Drawing on ChEMBL document CHEMBL1154097, “Novel 3,3'-diindolylmethane derivatives: synthesis and cytotoxicity, structural characterization in solid state” (Eur J Med Chem, 2009), this text covers Activity for 2 molecules.

Calls of active or inactive are those of the source. The rule behind the calls is not given here.

One test relates to IGROV-1. The test is described as follows: Cytotoxicity against human IGROV1 cells. The test is classed as functional.
Another test deals with PC-3. Nature of the test: Cytotoxicity against human PC3 cells. The test is classed as functional.
The test system of the next test is SK-MEL-2. Nature of the test: Cytotoxicity against human SK-MEL-2 cells. The test is classed as functional.
Another test concerns Malme-3M. Nature of the test: Cytotoxicity against human MALME-3M cells at 10 uM. The test is classed as functional, cell-based.
In a further test the test system is UO-31. The test is described as follows: Cytotoxicity against human UO31 cells. The test is classed as functional.

As to `Fc1cc(F)cc(C(c2c[nH]c3ccccc23)c2c[nH]c3ccccc23)c1`, the Activity in the test on IGROV-1 is -6.52%; in the test on PC-3, 67.07%; with SK-MEL-2 it was 58.84%; in the test with UO-31, 52.86%. The outcome in the test on Malme-3M was Active.
The matching figures for `COc1ccc2[nH]cc(C(c3cc(F)cc(F)c3)c3c[nH]c4ccc(OC)cc34)c2c1`: -7.1%, 50.16%, 62.49%, 43.23% and “Active”.
